“And” between values parts separate entries of the source, which are not always exact repeats. Equal values may be shown once. Non-standard residues stand in square brackets, D forms with d. Residues, ends and D or L forms follow the SMILES beside them. ξ: configuration not given here. *: point of attachment. ξF = NC(Cc1ccccc1)C(=O)O; Cbz = O=C(OCc1ccccc1)*
Assays:
human calpain I = target: T1, human calpain I (Homo sapiens, UniProt P07384); assay: Effects on human calpain I (acellular, Suc-Leu-Tyr-AMC fluorescence); format: biochemical; conditions: enzyme purified from human erythrocytes; 1 h at 25°C; read-out: Inhibition human calpain I, acellular [IC50 (nM)]
T1 construct: enzyme purified from human erythrocytes; purchased Calbiochem 208713; host or cells: human erythrocytes (native tissue source)
T1 sequence (P07384 1-714): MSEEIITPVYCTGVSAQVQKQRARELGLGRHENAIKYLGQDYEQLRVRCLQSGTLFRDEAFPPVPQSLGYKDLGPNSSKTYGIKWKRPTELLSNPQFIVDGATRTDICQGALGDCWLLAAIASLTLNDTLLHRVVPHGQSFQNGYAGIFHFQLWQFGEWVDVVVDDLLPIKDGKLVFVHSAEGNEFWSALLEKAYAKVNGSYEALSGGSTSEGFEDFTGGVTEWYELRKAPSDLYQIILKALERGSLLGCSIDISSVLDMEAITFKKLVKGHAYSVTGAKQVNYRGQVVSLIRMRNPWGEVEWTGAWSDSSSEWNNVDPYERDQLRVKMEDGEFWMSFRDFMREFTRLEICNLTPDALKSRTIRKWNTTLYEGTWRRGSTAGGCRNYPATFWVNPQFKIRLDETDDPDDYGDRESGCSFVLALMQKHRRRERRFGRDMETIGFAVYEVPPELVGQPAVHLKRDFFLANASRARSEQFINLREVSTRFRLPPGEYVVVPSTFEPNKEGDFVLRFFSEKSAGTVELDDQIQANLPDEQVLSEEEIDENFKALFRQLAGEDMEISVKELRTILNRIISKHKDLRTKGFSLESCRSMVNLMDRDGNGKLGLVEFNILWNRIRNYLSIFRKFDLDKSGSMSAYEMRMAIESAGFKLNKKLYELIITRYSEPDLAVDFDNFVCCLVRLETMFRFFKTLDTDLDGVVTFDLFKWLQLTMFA
T1 sequence (P04632 1-268 partner): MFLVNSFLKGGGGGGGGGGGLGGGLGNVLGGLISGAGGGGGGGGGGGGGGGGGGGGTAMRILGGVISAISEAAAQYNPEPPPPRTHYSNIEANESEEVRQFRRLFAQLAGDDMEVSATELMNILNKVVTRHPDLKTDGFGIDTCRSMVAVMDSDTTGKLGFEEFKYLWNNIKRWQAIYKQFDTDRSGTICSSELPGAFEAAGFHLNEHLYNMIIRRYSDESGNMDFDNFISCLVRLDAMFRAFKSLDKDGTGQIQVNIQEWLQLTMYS
Method: The test consists of measuring the activity of the enzyme (enzyme purified from human erythrocytes) which is incubated in a buffer in the presence of a peptide substrate coupled with a fluorochrome (amino-methylcourmarin, AMC) and calcium. The enzyme activated by the calcium, proteolyses the substrate and releases the AMC fragment. The AMC released fluoresces at 460 nm under excitation at 380 nm. The activity of the enzyme is therefore proportional to the quantity of fluorescence i.e. of free AMC fragment. The fluorescence (380/460 nm) is measured using a multi-well fluorimeter (Victor 2, Wallac).
Assay is carried out in 96-well microplates with transparent bottoms and black walls in which 10 μl per well of substance to be tested in DMSO 10%, 45 μl of reaction mixture containing the human calpain I at 2.2 U/ml (Calbiochem, ref: 208713), the Suc Leu Tyr-AMC substrate (Bachem, ref: I-1355) at 1.1 mM in a buffer (Tris-HCl 110 mM; NaCl 110 mM; EDTA 2.2 mM; EGTA 2.2 mM; mercaptoethanol 1.1 mM) are distributed. The reaction is initiated by adding 45 μl of CaCl2 22mM. To determine the background noise, control wells without calcium are added to the plate (10 μL DMSO 10%+45 μL of buffer with the enzyme and the susbtrate +45 μL H2O). In order to determine the total activity of the enzyme control wells containing no product are added to the plate (10 μL DMSO 10%+45 μL of buffer with the enzyme and the substrate +45 μL of CaCl2 22 mM ). Each concentration of the products (0.1 nM to 10 μM) is tested in duplicate. The plates are shaken and incubation takes place for one hour at 25° C. in darkness. The fluorescence is read at 380/460 nm using the Victor.

[1] = tested on: calpain activity in rat glial cells (C6); assay: In situ calpain activity in rat glial cells C6 stimulated by maitotoxin; format: cell-based; conditions: read-out: Inhibition human calpain I, in situ (C6) [IC50 (nM)]; n = 3; maitotoxin 1 nM; 1 h 30 min
Method: Human neuroblastomas SHSY5Y and rat glial cells C6 are seeded at a rate of 50,000 and 25,000 cells respectively per well on 96-well plates in DMEM 10% FBS. The next day, the cells which have adhered are washed 3 times in DMEM medium without serum and 40 mM Hepes. 100 microlitres of product B is placed in the wells. After incubation for 1 hour at 37° C. under an atmosphere of 5% CO2, 10 μl containing the fluorescent substrate of calpain (Suc-Leu-Tyr-AMC) and maitotoxin (Sigma, ref: M-9159), in order to obtain a final concentration in the well of 100 μM and of 1 nM respectively are added.
In order to determine the total activity of the cell enzyme, wells containing no product are added to the plate (100 μL DMSO 100th plus 10 μl of MTX and substrate). The background noise is determined by adding control wells with no MTX. Each concentration of the products (0.3 μM to 200 μM for the SHSY5Y's and 0.01 μM to 100 μM for the C6's) is tested in triplicate. The plates are shaken, the fluorescence is read at 380/460 nm using the Victor at T zero. Incubation takes place for four hours for the SHSY5Y and 1 hour 30 minutes for the C6 cells at 30° C. in darkness.

rat glial cells C6 = assay: Protection from necrosis induced by maitotoxin, C6 (wst-1 viability); format: cell-based
Method: Human neuroblastomas SHSY5Y and rat glial cells C6 are seeded at 25 000 cells per well in 96-well plates in DMEM 10% FBS for 24 hours. The L6 rat myoblasts are seeded at 1000 cells per well in DMEM 10% FBS on 96-well microplates coated beforehand with gelatin 0.5% PBS. After culture for 3 days the medium is removed and replaced with a differentiation medium (DMEM+10 μg/ml of insulin+100 μg/ml of transferrin). 50 μl of product A plus 50 μl of solvent or 50 μl of product B are placed in the wells. After incubation for 1 hour at 37° C. under an atmosphere of 5% CO2, 10 μl of maitotoxin is added in order to obtain a final concentration of 0.1 nM to 1 nM (according to the cell type). After incubation for 3 hours at 37° C. under an atmosphere of 5% CO2, the cell viability is determined by adding 10 μl of tetrazolium salts (wst-1, Roche, ref: 1644807). The tetrazolium salts are cleaved into formazan molecules by mitochondrial dehydrogenases. The quantity of formazan formed is directly correlated to the number of metabolically active cells in the culture. Measurement of the absorbance of the formazan is carried out using a multiwell photometer at a wavelength of 420 nm against a reference wavelength of 620 nm.
The theoretical effect was obtained by multiplying the percentage of dead cells in the presence of product A by the percentage of dead cells in the presence of product B (Table 3). The percentage protection against cell death induced by MTX being the percentage of cells kept alive in the presence of the product or products.
In the light of the previous results, the combination of Example 1 with product A and product B at a rate of 100 μM of each of the products is carried out on human neuroblastomas (SHSY5Y; (Table 5A) and on glial cells with 25 μM of product A and 50 μM of product B (C6; Table 5B) on a larger number of cases.

[2] = tested on: lipidic peroxidation of rat cerebral cortex homogenate; assay: In vitro lipidic peroxidation (Fenton reaction, MDA) in rat cerebral cortex membranes; format: biochemical; conditions: iron/ascorbate, read-out: Inhibition of lipidic peroxidation [IC50 (μM)]
Method: The test consists of inducing lipidic peroxidation by Fenton reactions in the presence of iron and ascorbate. The degree of lipidic peroxidation is determined by the concentration of malonaldehyde (MDA). The MDA produced by the lipidic peroxidation of unsaturated fatty acids is a good indicator of lipidic peroxidation (Esterbauer et al, 1990; Meth. Enzymol. 186: 407421). For this colorimetric test, the condensation of a molecule of MDA with two molecules of chromogenic reagent R (N-methyl-2-phenylindole) produces a stable chromophore the maximum absorbance wavelength of which is equal to […].
The membranes are prepared from the cortexes of male Sprague Dawley rats weighing 200 to 250 g. The animals are sacrificed by decapitation and the brains are immediately removed and rinsed in cold Tris HCl 20 mM pH 7.4. The cortexes, after dissection and removal of the white matter, are then ground with the Thomas potter, in Tris HCl buffer 20 mM pH 7.4 at 4° C. The homogenate obtained is centrifuged at low speed in order to eliminate the large debris (515 g for 15 minutes at 4° C.). The supernatant is then distributed into polycarbonate centrifugation tubes and centrifuged at 51500 g for 25 min at 4° C. The membrane pellets are kept at −80° C.
On the day of the experiment, the frozen membranes are resuspended at a concentration of 0.5 equivalent grams of cortex per 5 ml of Tris HCl buffer 20 mM pH 7.4 and homogeneized using a combitips. In 96-well “deep-well” 1 ml polypropylene plates with a conical base, 5 μl per well of the product to be tested or of solvent is mixed with 40 μl of rat cerebral cortex homogenate by centrifugation (800 rpm). The plates are covered with a self-adhesive aluminium sheet and incubated at 37° C. for 15 minutes under agitation. […]
The membranes and the supernatants are separated by filtration under vacuum on a 96-well plate with a multiscreen filtering base NA (Millipore, ref: MANANLY 50). The absorbance of the supernatants recovered in the 96-well plates is read using a photometer.

[3] = single product at 100 μM, n = 1

For `CC(C)C[C@H](NC(=O)OCc1ccccc1)C(=O)NC(C=O)Cc1ccccc1` (stereo partly drawn) [EXAMPLE 2 B, benzyl (1S)-1-{[(1-benzyl-2-oxoethyl)amino]carbonyl)-3-methylbutylcarbamate] (Cbz-Leu-[ξF]-aldehyde), the IC50 (human calpain I) was 8 nM, the IC50 [1] was 2200 ± 290 nM and the “Protection from necrosis induced by MTX on C6” value (shortened to “Protection”) (rat glial cells C6; single product at 50 μM, n = 3 for Example 2, else n = 1) was 12.05 ± 2.82%. The “Protection” value (rat glial cells C6; single product at 50 μM, n = 3 for Example 2, else n = 1, listed as Z-Leu-Phe-H) was “inactive”.

In the case of `CC(=O)N[C@@H](CC(C)C)C(=O)N[C@@H](CC(C)C)C(=O)N[C@H](C=O)CCCNC(=N)N` [LEUPEPTIN, leupeptin], the IC50 (human calpain I) is reported as 73 nM.

With `O=C(O)C(S)=Cc1ccc(I)cc1` [EXAMPLE 4 B, 3-(4-iodophenyl)-2-mercapto-2-propenoic acid] the IC50 (human calpain I) was 5140 nM, the “Protection” value (rat glial cells C6; single product at 25 μM) was 0.69% and the “Protection” value (rat glial cells C6; [3]) was 0.36% and 2.75%.

`Oc1ccc(Nc2ccccc2)cc1` [EXAMPLE 5 A, 4-hydroxydiphenylamine] was tested, and the IC50 [2] was 0.093 µM, the “Protection” value (rat glial cells C6; [3]) was 17.90% and the “Protection” value (rat glial cells C6; single product at 100 μM, n = 1, listed as EXAMPLE 6 A) was 9.43%.

Source: US20070265208A1, “Association of calpain inhibitors and reactive oxygen species trapping agents” (priority 2000, published 2007)
